15 compounds from patent EP1304101A1, “Composition and method for use of pyridinium derivatives in cosmetic and therapeutic applications” (Torrent Pharmaceuticals Ltd, priority 2001, dated 2003) can be followed below.

For one assay, the target named is T1, AGE-BSA (Bos taurus, UniProt P02769).
T1 construct: Bovine serum albumin (fraction V) (BSA); from tissue
In words: In-vitro AGE breaking activity by ELISA (16 weeks AGE-BSA incubated with test compound). The assay is classed as biochemical, bovine. The settings on record: for % Breakage: 37°C, 24 hours; for AGE breaking activity compared to PTB / potency (AGE breaking activity compared to PTB): comparison in words based on Table 2.

Assay [1] can be described thus: Free radical scavenging activity on ABTS radical cation (absorbance at 730nm). The class given is biochemical. The procedure:
This method measures the relative ability of free radical scavenging substances to scavenge the ABTS ^.+ i.e. 2,2-Azino-bis-(3-ethyl benzo thiazoline-6-sulfonate) radical cation as compared to a standard amount of standard or free radical scavengers antioxidants. Incubation of ABTS with Peroxidase (metmyoglobin) and hydrogen peroxide results in the production of radical cation ABTS^.+ . This species is blue- green in colour and can be detected at 730nm. Antioxidants or free radical scavengers in the added sample that causes suppression of the color to a degree that is proportional to their concentration.
• A. Phosphate Citrate Buffer (pH 5.0): 48.5ml of 0.1M citric acid with sufficient 0.2M disodium hydrogen phosphate to produce 100 ml. • B. Phosphate Buffer Saline (PBS): Dissolve 40.0g of NaCl, 1.0g of KCI, 1.0g of KH2PO4 and 3.05g of Na2HPO4 in 1 litre milli-Q water. Dilute 200ml of above solution to 1 litre with milli-Q water (pH 7.4-7.6). • C. 3µM stock solution of Peroxidase was prepared in phosphate buffer saline pH 7.4(PBS). • D. 1.08 mM stock solution of Hydrogen peroxide was prepared in phosphate buffer saline pH 7.4 (PBS).
1 tablet (10mg) was dissolved in phosphate citrate buffer (pH 5.0).
5.0ml of ABTS stock solution was diluted with PBS to 20 ml.
320 µg of the enzyme was dissolved in 2.5 ml of PBS.
12µl of Hydrogen Peroxide (30%w/v) was diluted to 100ml with PBS.
0.1mM of stock solution of the drug was prepared which was serially diluted in PBS to get solutions of different concentrations.
To 18ml of ABTS stock solution, 100µl of Horseradish Peroxidase stock solution was added.
As soon as 1.5 ml of hydrogen peroxide solution was added to the above solution, blue-green colour of the ABTS radicals appeared. This solution was incubated at 30°C for 30 min.
980µl of ABTS radical stock solution was added to an eppendorf tube. To it was added 100µl of various PBS solution.
980µl of ABTS radical stock solutions were added to different eppendorf tubes. To it were added 100µl of various concentrations of drug solution.
The absorbance of control and test samples was recorded immediately at 730nm taking PBS as blank.
Calculation: The percent antioxidant activity was calculated according to the formula: % Antioxidant activity = [O.D of test sample/O.D of control*100]-100.

Structures are written as SMILES. Values joined by “and” are separate entries in the source; they are usually repeats but may differ in a detail not shown here. Equal entries are not always repeated.

T1 sequence (P02769 25-607): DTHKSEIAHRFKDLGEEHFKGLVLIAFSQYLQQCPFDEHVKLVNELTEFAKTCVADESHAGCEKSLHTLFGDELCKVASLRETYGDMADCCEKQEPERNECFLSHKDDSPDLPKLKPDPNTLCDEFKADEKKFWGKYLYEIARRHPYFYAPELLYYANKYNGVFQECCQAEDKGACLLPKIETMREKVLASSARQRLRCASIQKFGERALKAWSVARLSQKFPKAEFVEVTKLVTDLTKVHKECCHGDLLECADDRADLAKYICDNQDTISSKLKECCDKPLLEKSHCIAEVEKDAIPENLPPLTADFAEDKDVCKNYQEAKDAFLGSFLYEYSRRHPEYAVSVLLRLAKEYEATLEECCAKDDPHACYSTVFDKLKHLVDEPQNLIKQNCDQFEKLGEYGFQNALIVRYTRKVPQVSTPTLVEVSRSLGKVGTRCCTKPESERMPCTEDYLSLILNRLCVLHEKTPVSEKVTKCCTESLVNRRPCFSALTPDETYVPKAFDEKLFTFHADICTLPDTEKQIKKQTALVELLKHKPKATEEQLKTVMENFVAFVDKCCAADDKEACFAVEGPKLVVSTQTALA
Description for AGE-BSA: AGE breaking activity has been confirmed by the screening procedure as mentioned below: • Materials: • Bovine serum albumin (fraction V) (BSA) • Glucose, analytical grade • Phosphate buffered saline (PBS) • Equipment: • Microplate ELISA Reader - Spectramax Plus (Molecular Devices, USA) • Microplate washer, (Bio -Tec Instruments, USA) • pH meter • Methods of experiment: Elisa (Enzyme Linked Immunosorbent Assay) 160 mg/ml of protein, bovine serum albumin, BSA and 1.6M glucose sugar were dissolved in phosphate buffered saline, PBS. Sodium azide was added at 0.02% concentration as a preservative. The solution was filtered asceptically through a 0.22 µM filter and kept for aging at 37°C for 16 weeks. After 16 weeks the solution was dialyzed against PBS, aliquoted and stored at - 20°C.
To determine the AGE breaking activity, 10 µg/ml of the 16 weeks AGE-BSA was incubated with different concentrations of the test compounds at 37°C for 24 hours and AGE breaking activity of the test compounds by ELISA was determined.
Different concentrations of 16 weeks AGE-BSA were coated on a microtitre plate as standard. Each concentration is coated in triplicates. • 2. The test samples were coated on microtitre plate at a concentration of 5 ng. to 20 ng per well in triplicates. • 3. The plate was incubated at 37°C for one hour. • 4. After incubation the plate was washed with PBST (PBS with 0.05% Tween 20). • 5. Blocking with 5% skimmed milk in PBS at 37°C for one hour was done. • 6. The plate was washed with PBST. • 7. Primary antibody against AGE-BSA was added and the plate is incubated at 37°C for one hour. • 8. The plate was washed with PBST • 9. Secondary antibody anti rabbit HRPO (Horse-Radish Per Oxidase) conjugate was added and the plate is incubated at 37°C for one hour. • 10. The plate was washed with PBST. • 11. Colour development with OPD (orthophenylenediamine dihydrochloride) and hydrogen peroxide was done. • 12. OD (optical density) at (450nm reading - 620nm reading) was measured after incubation at 37°C for 15 minutes with Microplate ELISA Reader.
The breaker activity of the compounds were determined by the following formula: % Breaker activity =(OD450-620 Control - OD450-620 Test)/(OD450-620 Control)x 100 [formula] OD450-620Control= Absorbance of 20ng AGE-BSA after incubation at 37°C for 24 hours without test compound OD450-620Test= Absorbance of 20ng AGE-BSA after incubation at 37°C for 24 hours with required concentration of test compound

Take `CCOC(=O)C[n+]1cccc(C(=O)NNc2ccccn2)c1.[Br-]` [Compound 4, 1-(2-ethoxy-2-oxoethyl) -3-(2-(2-pyridyl) hydrazinocarbonyl) pyridinium bromide]: the “% Breakage” value on AGE-BSA (10 mM test compound) amounted to 30%. Also, on AGE-BSA, the “AGE breaking activity compared to PTB” value was “superior”. The “Relative Free Radical Scavenging Activity(%) on ABTS” value turned out to be 58.2% in assay [1] (11.5µM); 64.3% in assay [1] (23.0µM); 69.3% in assay [1] (46.0µM); 98.6% in assay [1] (92.5µM); 100% in assay [1] (925µM).
As to `COCCOC(=O)c1ccc[n+](CC(=O)c2ccc(Cl)cc2Cl)c1` [Compound 22, 1-(2-(2', 4'-dichlorophenyl)-2-oxoethyl)-3-(2(methoxy)ethyloxycarbonyl) pyridinium bromide], the “% Breakage” value at AGE-BSA (10 mM test compound) is recorded as 13%; on AGE-BSA (25 mM test compound) it was 41%. The “Relative Free Radical Scavenging Activity(%) on ABTS” value in assay [1] (11.5µM) worked out at 27.9%; in assay [1] (23.0µM), 50.9%; in assay [1] (46.0µM) it was 69.3%; in assay [1] (92.5µM), 79.7%; in assay [1] (925µM), 100%.
As to `COCCNC(=O)c1ccc[n+](CC(=O)c2ccc(Cl)cc2Cl)c1.[Br-]` [Compound 38, 1-(2', 4'-dichlorophenyl-2-oxoethyl)-3-(2-methoxyethylaminocarbonyl)-pyridinium bromide], at AGE-BSA (5 mM test compound), the “% Breakage” value is 17.66%. For the same compound, the “Relative Free Radical Scavenging Activity(%) on ABTS” value in assay [1] (11.5µM) turned out to be 47.2%; in assay [1] (23.0µM), 54.8%; in assay [1] (46.0µM), 71.0%; in assay [1] (92.5µM), 89.5%; in assay [1] (925µM), 100%.
As for `CS(=O)(=O)NNC(=O)c1ccc[n+](CC(=O)c2cccs2)c1.[Cl-]` [Compound 45, 1-(2-thien-2'-yl-2-oxoethyl)-3-(methanesulfonyl hydrazinocarbonyl) pyridinium chloride], the “% Breakage” value at AGE-BSA (10 mM test compound) was determined as 17.53%. Also, the “Relative Free Radical Scavenging Activity(%) on ABTS” value turned out to be 53.9% in assay [1] (11.5µM); 56.2% in assay [1] (23.0µM); 78.7% in assay [1] (46.0µM); 99.8% in assay [1] (92.5µM); 100% in assay [1] (925µM).
For `CC(C)S(=O)(=O)NNC(=O)c1ccc[n+](CC(=O)c2cccs2)c1` [Compound 50, 1-(2-thien-2'-yl-2-oxoethyl)-3-(isopropylsulfonyl hydrazinocarbonyl) pyridinium bromide], on AGE-BSA (10 mM test compound), the “% Breakage” value is 31.45%. Besides, the “AGE breaking activity compared to PTB” value on AGE-BSA was “superior”. For the same compound, the “Relative Free Radical Scavenging Activity(%) on ABTS” value in assay [1] (11.5µM) was 3.30%; in assay [1] (23.0µM), 23.06%; in assay [1] (46.0µM), 54.95%; in assay [1] (92.5µM), 89.31%.
Take `CS(=O)(=O)NNC(=O)c1ccc[n+](CC(=O)N2CCC(Cc3ccccc3)CC2)c1.[Cl-]` [Compound 51, 1-(2-(4-benzylpiperidin-1-yl)-2-oxoethyl)-3-(methanesulfonyl hydrazinocarbonyl) pyridinium chloride]: the “% Breakage” value on AGE-BSA (10 mM test compound) is reported as 20.94%. For the same compound, the “Relative Free Radical Scavenging Activity(%) on ABTS” value turned out to be 0.00% in assay [1] (11.5µM), 21.64% in assay [1] (23.0µM), 52.82% in assay [1] (46.0µM) and 83.94% in assay [1] (92.5µM).
For `CS(=O)(=O)NNC(=O)c1ccc[n+](CC(=O)c2ccc(Cl)s2)c1.[Br-]` [Compound 55, 1-(2-(5-chlorothien-2-yl)-2-oxoethyl)-3-(methanesulfonyl hydrazinocarbonyl) pyridinium bromide], in that order: 40.85%, 46.47%, 84.97%, 99.50% and 99.93%.
As for `O=C(NNC(=O)c1ccc[n+](CC(=O)c2cc([N+](=O)[O-])cs2)c1)c1ccc[n+](CC(=O)c2cc([N+](=O)[O-])cs2)c1` [Compound 56, N, N'-bis [3-carbonyl-1-(2-(4-nitrothien-2-yl)-2-oxoethyl)pyridinium] hydrazine dichloride], at AGE-BSA (10 mM test compound), the “% Breakage” value is recorded as 75.92%. For the same compound, the “Relative Free Radical Scavenging Activity(%) on ABTS” value in assay [1] (11.5µM) came out at 43.0%; in assay [1] (23 µM) it was 57.2%; in assay [1] (46 µM) it was 71.6%; in assay [1] (92.5µM), 97.7%; in assay [1] (925µM), 100%.
With `CS(=O)(=O)NNC(=O)c1ccc[n+](CC(=O)c2cc([N+](=O)[O-])cs2)c1.[Br-]` [Compound 64, 1-(2-(4-nitrothien-2-yl)-2-oxoethyl)-3-(methanesulfonyl hydrazinocarbonyl) pyridinium bromide], the “% Breakage” value on AGE-BSA (10 mM test compound) stood at 60.94%. The “AGE breaking activity compared to PTB” value at AGE-BSA is “superior”. Also, at AGE-BSA, the “potency (AGE breaking activity compared to PTB)” value is “significantly much higher”. In addition, the “Relative Free Radical Scavenging Activity(%) on ABTS” value in assay [1] (11.5µM, listed as Compound No.64, 11.5 µM) was 41.8% and 26.01%; in assay [1] (23.0µM, listed as Compound No.64, 23 µM) it was 55.7% and 57.39%; in assay [1] (46.0µM, listed as Compound No.64, 46 µM) it was 72.2% and 99.30%; in assay [1] (92.5µM, listed as Compound No.64, 92.5 µM) it was 99.0% and 99.62%; in assay [1] (925µM), 100%.
As for `O=C(C[n+]1cccc(C(=O)NNc2ccccc2)c1)Nc1ccccc1.[Cl-]` [Compound 65, 1-(2-phenylamino-2-oxoethyl)-3-(phenyl hydrazinocarbonyl) pyridinium chloride], the “% Breakage” value at AGE-BSA (2.5 mM test compound) is recorded as 68.35%. Besides, at AGE-BSA, the “AGE breaking activity compared to PTB” value is “superior”. For the same compound, the “potency (AGE breaking activity compared to PTB)” value on AGE-BSA is “significantly much higher”. Besides, the “Relative Free Radical Scavenging Activity(%) on ABTS” value is recorded as 27.67% in assay [1] (11.5µM), 59.20% in assay [1] (23.0µM), 94.14% in assay [1] (46.0µM) and 100.00% in assay [1] (92.5µM).
On to `CS(=O)(=O)NNC(=O)c1ccc[n+](CC(=O)c2ccc([N+](=O)[O-])s2)c1` [Compound 67, 1-2-(5-nitro-thien-2-yl)-2-oxoethyl)-3-(methanesulfonyl hydrazino carbonyl) pyridinium chloride], for which, at AGE-BSA (1 mM test compound), the “% Breakage” value is 42.01%. Moreover, the “AGE breaking activity compared to PTB” value at AGE-BSA was “superior”. Besides, the “potency (AGE breaking activity compared to PTB)” value at AGE-BSA was “significantly much higher”. The “Relative Free Radical Scavenging Activity(%) on ABTS” value was determined as 13.11% in assay [1] (11.5µM), 50.70% in assay [1] (23.0µM), 97.46% in assay [1] (46.0µM) and 99.43% in assay [1] (92.5µM).
With `CCOC(=O)C[n+]1cccc(C(=O)NCCO)c1.[Br-]` [Compound 87, 1-(2-Ethoxy-2-oxoethyl)-3-((2-hydroxyethyl)aminocarbonyl) pyridinium bromide], the “% Breakage” value on AGE-BSA (10 mM test compound) is 43%.
The same measure, in the same setting: under `CCCCNC(=O)c1ccc[n+](CC(=O)Nc2ccccc2)c1.[Cl-]` [Compound 94, 1-(2-Phenylamino - 2-oxoethyl) - 3 - (n-butylaminocarbonyl) pyridinium chloride] stands 27%.
Take `O=C(C[n+]1cccc(C(=O)NCCO)c1)Nc1ccccc1.[Cl-]` [Compound 95, 1-(2- Phenylamino - 2-oxoethyl)-3-((2-hydroxyethyl)aminocarbonyl) - pyridinium chloride]: the “% Breakage” value on AGE-BSA (20 mM test compound) is listed as 48%.
As to `O=C(C[n+]1ccsc1)c1ccccc1` [PTB, reference compound], the “% Breakage” value at AGE-BSA (10 mM test compound) was found to be 27%; at AGE-BSA (20 mM test compound) it was 47%.
